Tests used:
[1] = system: Mus musculus; experiment: Hepatotoxicity in Swiss albino mouse assessed as TBARS production per mg of protein at 3 mg/kg, po after 30 days (reference value: 0.26+/-0.02 nmol); type: toxicity, organism-based; parameters: dose 3 mg/kg, route oral; conditions: in vivo, 720 h
[2] = system: Mus musculus; experiment: Increase of SOD level in Swiss albino mouse liver assessed per mg of protein at 3 mg/kg, po after 30 days (reference value: 250.16+/-7.46 U); type: functional
[3] = system: Mus musculus; experiment: Nephrotoxicity in Swiss albino mouse assessed as lesion at 3 mg/kg, po after 30 days by histopathology analysis; type: toxicity, organism-based; parameters: dose 3 mg/kg, route oral; conditions: in vivo, 720 h
[4] = system: Mus musculus; experiment: Nephrotoxicity in Swiss albino mouse assessed as necrosis at 3 mg/kg, po after 30 days by histopathology analysis; type: toxicity, organism-based; parameters: dose 3 mg/kg, route oral; conditions: in vivo, 720 h
[5] = system: Mus musculus; experiment: Nephrotoxicity in Swiss albino mouse assessed as inflammation at 3 mg/kg, po after 30 days by histopathology analysis; type: toxicity, organism-based; parameters: dose 3 mg/kg, route oral; conditions: in vivo, 720 h
[6] = Toxicity in po dosed Swiss albino mouse; type: organism-based; conditions: in vivo
[7] = system: Mus musculus; experiment: Toxicity in Swiss albino mouse assessed as decrease in final body weight at 1.2 mg/kg, po administered for 30 days; type: organism-based; parameters: dose 1.2 mg/kg, route oral; conditions: in vivo, 720 h
[8] = system: Mus musculus; experiment: Increase of Gpx level in Swiss albino mouse liver assessed as NADPH oxidation per mg of protein at 3 mg/kg, po after 30 days relative to control; type: functional
[9] = system: Mus musculus; experiment: Hepatotoxicity in Swiss albino mouse assessed as plasma ALT level at 3 mg/kg, po after 30 days (reference value: 66.00+/-4.18 U/mL); type: toxicity, organism-based; parameters: dose 3 mg/kg, route oral; conditions: in vivo, 720 h
[10] = Induction of chromosomal aberration in Swiss albino mouse bone marrow cell at 3 mg/kg, po after 30 days (reference value: 14.88+/-0.99 %); type: organism-based; parameters: dose 3 mg/kg, route oral; conditions: in vivo, 720 h
[11] = system: Mus musculus; experiment: Hepatotoxicity in Swiss albino mouse assessed as necrosis at 3 mg/kg, po after 30 days by histopathology analysis; type: toxicity, organism-based; parameters: dose 3 mg/kg, route oral; conditions: in vivo, 720 h
[12] = system: Mus musculus; experiment: Nephrotoxicity in Swiss albino mouse assessed as serum creatinine level at 3 mg/kg, po after 30 days (reference value: 9.40+/-0.48 mg/dL); type: toxicity, organism-based; parameters: dose 3 mg/kg, route oral; conditions: in vivo, 720 h
[13] = system: Mus musculus; experiment: Increase of TRxR level in Swiss albino mouse liver assessed per mg of protein at 3 mg/kg, po after 30 days relative to control; type: functional
[14] = system: Mus musculus; experiment: Hepatotoxicity in Swiss albino mouse assessed as plasma AST level at 3 mg/kg, po after 30 days (reference value: 179.00+/-4.18 U/mL); type: toxicity, organism-based; parameters: dose 3 mg/kg, route oral; conditions: in vivo, 720 h
[15] = system: Mus musculus; experiment: Hepatotoxicity in Swiss albino mouse assessed as inflammation at 3 mg/kg, po after 30 days by histopathology analysis; type: toxicity, organism-based; parameters: dose 3 mg/kg, route oral; conditions: in vivo, 720 h
[16] = system: Mus musculus; experiment: Hepatotoxicity in Swiss albino mouse assessed as lesion at 3 mg/kg, po after 30 days by histopathology analysis; type: toxicity, organism-based; parameters: dose 3 mg/kg, route oral; conditions: in vivo, 720 h
[17] = system: Mus musculus; experiment: Increase of CAT level in Swiss albino mouse liver assessed per mg of protein at 3 mg/kg, po after 30 days (reference value: 41.66+/-1.33 U); type: functional
[18] = system: Mus musculus; experiment: Increase of GST level in Swiss albino mouse liver assessed as CDNB-GSH conjugate per mg of protein at 3 mg/kg, po after 30 days (reference value: 95.66+/-4.0 nmol/min); type: functional
[19] = system: Mus musculus; experiment: Toxicity in Swiss albino mouse assessed as loss of body weight at 3 mg/kg, po administered for 30 days; type: organism-based; parameters: dose 3 mg/kg, route oral; conditions: in vivo, 720 h
[20] = system: Mus musculus; experiment: Toxicity in Swiss albino mouse assessed as hemoglobin level at 3 mg/kg, po after 30 days (reference value: 12.56+/-0.43 gm/dL); type: organism-based; parameters: dose 3 mg/kg, route oral; conditions: in vivo, 720 h
[21] = system: Mus musculus; experiment: Increase of GSH level in Swiss albino mouse liver assessed per mg of protein at 3 mg/kg, po after 30 days (reference value: 46.87+/-1.88 nmol); type: functional
[22] = system: Mus musculus; experiment: Nephrotoxicity in Swiss albino mouse assessed as BUN level at 3 mg/kg, po after 30 days (reference value: 21.57+/-0.92 mg/dL); type: toxicity, organism-based; parameters: dose 3 mg/kg, route oral; conditions: in vivo, 720 h
[23] = system: Mus musculus; experiment: Increase of TRxR level in Swiss albino mouse liver assessed per mg of protein at 3 mg/kg, po after 30 days (reference value: 3.20+/-0.134 U); type: functional
[24] = system: Mus musculus; experiment: Increase of Gpx level in Swiss albino mouse liver assessed as NADPH oxidation per mg of protein at 3 mg/kg, po after 30 days (reference value: 0.646+/-0.030 umol); type: functional
[25] = Induction of chromosomal aberration in Swiss albino mouse bone marrow cell at 1.2 mg/kg, po after 30 days (reference value: 14.88+/-0.99 %); type: organism-based; parameters: dose 1.2 mg/kg, route oral; conditions: in vivo, 720 h
[26] = system: Mus musculus; experiment: Hepatotoxicity in Swiss albino mouse assessed as infiltration of mononuclear cells at 1.2 mg/kg after 30 days by histopathology analysis; type: toxicity, organism-based; parameters: dose 1.2 mg/kg; conditions: in vivo, 720 h
[27] = system: Mus musculus; experiment: Nephrotoxicity in Swiss albino mouse assessed as serum creatinine level at 1.2 mg/kg, po after 30 days (reference value: 9.40+/-0.48 mg/dL); type: toxicity, organism-based; parameters: dose 1.2 mg/kg, route oral; conditions: in vivo, 720 h
[28] = system: Mus musculus; experiment: Hepatotoxicity in Swiss albino mouse assessed as plasma ALT level at 1.2 mg/kg, po after 30 days (reference value: 66.00+/-4.18 U/mL); type: toxicity, organism-based; parameters: dose 1.2 mg/kg, route oral; conditions: in vivo, 720 h
[29] = system: Mus musculus; experiment: Hepatotoxicity in Swiss albino mouse assessed as plasma AST level at 1.2 mg/kg, po after 30 days (reference value: 179.00+/-4.18 U/mL); type: toxicity, organism-based; parameters: dose 1.2 mg/kg, route oral; conditions: in vivo, 720 h
[30] = system: Mus musculus; experiment: Increase of GST level in Swiss albino mouse liver assessed as CDNB-GSH conjugate per mg of protein at 1.2 mg/kg, po after 30 days (reference value: 95.66+/-4.0 nmol/min); type: functional
[31] = system: Mus musculus; experiment: Nephrotoxicity in Swiss albino mouse assessed as infiltration of mononuclear cells at 1.2 mg/kg after 30 days by histopathology analysis; type: toxicity, organism-based; parameters: dose 1.2 mg/kg; conditions: in vivo, 720 h
[32] = system: Mus musculus; experiment: Toxicity in Swiss albino mouse assessed as hemoglobin level at 1.2 mg/kg, po after 30 days (reference value: 12.56+/-0.43 gm/dL); type: organism-based; parameters: dose 1.2 mg/kg, route oral; conditions: in vivo, 720 h
[33] = system: Mus musculus; experiment: Increase of GSH level in Swiss albino mouse liver assessed per mg of protein at 1.2 mg/kg, po after 30 days (reference value: 46.87+/-1.88 nmol); type: functional
[34] = system: Mus musculus; experiment: Nephrotoxicity in Swiss albino mouse assessed as BUN level at 1.2 mg/kg, po after 30 days (reference value: 21.57+/-0.92 mg/dL); type: toxicity, organism-based; parameters: dose 1.2 mg/kg, route oral; conditions: in vivo, 720 h
[35] = system: Mus musculus; experiment: Increase of CAT level in Swiss albino mouse liver assessed per mg of protein at 1.2 mg/kg, po after 30 days (reference value: 41.66+/-1.33 U); type: functional
[36] = system: Mus musculus; experiment: Increase of TRxR level in Swiss albino mouse liver assessed per mg of protein at 1.2 mg/kg, po after 30 days (reference value: 3.20+/-0.134 U); type: functional
[37] = system: Mus musculus; experiment: Increase of Gpx level in Swiss albino mouse liver assessed as NADPH oxidation per mg of protein at 1.2 mg/kg, po after 30 days (reference value: 0.646+/-0.030 umol); type: functional
[38] = system: Mus musculus; experiment: Hepatotoxicity in Swiss albino mouse assessed as TBARS production per mg of protein at 1.2 mg/kg, po after 30 days (reference value: 0.26+/-0.02 nmol); type: toxicity, organism-based; parameters: dose 1.2 mg/kg, route oral; conditions: in vivo, 720 h
[39] = system: Mus musculus; experiment: Increase of SOD level in Swiss albino mouse liver assessed per mg of protein at 1.2 mg/kg, po after 30 days (reference value: 250.16+/-7.46 U); type: functional

Row | SMILES | Activity [1] | Activity [2] | LD50 [6] | Activity [7] | Activity [9] | Activity [10] | Activity [12] | Activity [14] | Activity [17] | Activity [18] | Activity [19] | Activity [20] | Activity [21] | Activity [22] | Activity [23] | Activity [24] | further results
1 | N#C[Se]CCCCCN1C(=O)c2cccc3c(N)ccc(c23)C1=O | 0.22 nM | 296.03 U | > 1000 mg/kg | Toxic | 59 U/ml | 12.7% | 7.13 mg/dL | 148 U/ml | 53.04 U | 116.19 nM | Non-toxic | 13.24 g/dL | 60.4 nM | 148 mg/dL | – | – | Activity [3]: Non-toxic; Activity [4]: Non-toxic; Activity [5]: Non-toxic; Activity [8]: 63.77%; Activity [11]: Non-toxic; Activity [13]: 53.43%; Activity [15]: Non-toxic; Activity [16]: Non-toxic
2 | N#C[Se]CCCCCN1C(=O)c2cccc3cccc(c23)C1=O | 0.24 nM | 258.56 U | > 1000 mg/kg | Toxic | 61 U/ml | 13.39% | 6.4 mg/dL | 160 U/ml | 45.48 U | 104.41 nM | Non-toxic | 13.08 g/dL | 50.94 nM | 160 mg/dL | 4.61 U | 0.864 U | –
3 | O=[Se]([O-])[O-].[Na+].[Na+] [SODIUM SELENITE] | – | – | 25 mg/kg | – | – | – | – | – | – | – | – | – | – | – | – | – | Activity [25]: 16.4%; Activity [26]: Toxic; Activity [27]: 8.47 mg/dL; Activity [28]: 72 U/ml; Activity [29]: 191 U/ml; Activity [30]: 85.31 nM; Activity [31]: Toxic; Activity [32]: 11.28 g/dL; Activity [33]: 44.84 nM; Activity [34]: 22.6 mg/dL; Activity [35]: 36.6 U; Activity [36]: 3.75 U; Activity [37]: 0.692 U; Activity [38]: 0.3 nM; Activity [39]: 236.98 U
4 | N#C[Se]CCCCCN1C(=O)c2cccc3cc([N+](=O)[O-])cc(c23)C1=O | 0.25 nM | 267.68 U | > 1000 mg/kg | Toxic | 62 U/ml | 13.85% | 7.86 mg/dL | 154 U/ml | 44.06 U | 97.29 nM | Non-toxic | 12.76 g/dL | 55.82 nM | – | 4.15 U | 0.938 U | –
5 | N#C[Se]CCCCCN1C(=O)c2cccc3c(Cl)ccc(c23)C1=O | 0.26 nM | 268.71 U | > 1000 mg/kg | Toxic | 64 U/ml | 13.97% | 7.45 mg/dL | 142 U/ml | 46.6 U | 106.58 nM | Non-toxic | 12.86 g/dL | 59.34 nM | 142 mg/dL | 4.21 U | 0.995 U | –
